Results taken from article PMC5442318, “Hundreds of dual-stage antimalarial molecules discovered by a functional gametocyte screen” (Nature Communications, 2017).
Where two headings read alike, the source gives them in different places.

Legend:
[1] = system: P. falciparum stage V female gametocytes; test: P. falciparum female gametocyte activation assay (Pf FGAA), 24 h or 48 h preincubation, Pfs25 expression readout; format: cell-based, Plasmodium falciparum NF54; details: mean, read-out: Gametocytes mean Pf FGAA IC50
Procedure: P. falciparum NF54 (originally isolated from an imported malaria case in the Netherlands in the 1980s; BEI Resources, cat. no. MRA-1000) asexual-stage culture was performed as described by Trager and Jensen[37]. Cultures synchronized at the ring stage were used to start gametocyte cultures (day 0) at 1% parasitaemia and 4% haematocrit in 200 ml final volume using culture bottles (Nalgene 3110-42, Thermo Scientific). Complete culture medium (RPMI 1640 supplemented with 25 mM HEPES, 50 μg ml^−1 hypoxanthine, 2 g l^−1 NaHCO3 and 10% pooled human male type A+ serum) was totally replaced daily for 14 days without fresh erythrocyte addition. Human serum was obtained from Interstate Blood Bank, A^+ serotype; no aspirin 2 h before drawing and no antimalarials 2 weeks before drawing. To ensure a stable temperature at 37 °C, which is crucial for gametocyte production and maturation, pre-warmed medium and a slide warmer (XH-2001, Premiere) were used. Under these conditions, parasitaemia reaches a peak of asexual stages on days 4–5, and the first gametocytes are differentiated in culture on day 6. Sexual-stage development was monitored microscopically by Giemsa-stained thin blood smears at day 7 (mainly asexual stages and stages I to III gametocytes) and day 14 (stages IV and V gametocytes).
Cultures showing mainly stage V gametocytes were purified by differential sedimentation as previously reported. The gametocyte concentration was adjusted to plate 8,000 gametocytes per well (100 μl per well) in 384-well poly-D-lysine coated plates (781946, Greiner Bio-One) containing the compounds to test. […] Female gametocyte activation was then triggered by temperature drop and addition of xanthurenic acid (D120804, Sigma) as previously described. To detect female gametes, monoclonal anti-Pfs25 antibody[38] 4B7 (BEI Resources (formerly MR4), cat. no. MRA-315) conjugated to the Cy3 fluorochrome (GE Healthcare) was added to ookinete medium (RPMI 1640 supplemented with 25 mM HEPES, 50 μg ml^−1 hypoxanthine, 2 g l^−1 NaHCO3, 100 μM xanthurenic acid and 20% human serum) at a final concentration of 0.5 μg ml^−1. Activated cultures were then kept at 26 °C for 24 h protected from light, and image acquisition was performed in the Opera High-Content Screening System (PerkinElmer). Using × 10 air objective, five images per well were taken using 532 nm excitation. Images were analysed with a Columbus image data storage and analysis system (PerkinElmer) based on a script specifically designed for this assay that considers size, roundness and intensity of fluorescence of the female activated gametocytes.
Compounds were dissolved in 100% DMSO and dispensed in the 384-well plates using an Echo-CRS liquid handler. Compounds were tested in 2–3 independent experiments. […] Based on that, Z′ factor was calculated for each plate and only those ones with values higher than 0.4 were considered acceptable for data analysis.
Assay performance statistics, such as signal to background ratio, Z′ and robust 3 s.d. activity cut-off were calculated using templates in ActivityBase XE (IDBS, Guilford, Surrey, UK). Hit population analysis and visualization were conducted using Spotfire DecisionSite (Spotfire, Inc., Somerville, MA, USA). The pIC50 (−log IC50) values were obtained using the ActivityBase XE nonlinear regression function in the full curve analysis bundle.

[2] = system: P. falciparum stages IV–V gametocytes; test: Gametocytocidal ATP-depletion assay (gametocyte ATP bioluminescence); format: cell-based, Plasmodium falciparum
Procedure: In parallel, the set of confirmed hits from the Pf FGAA screen was cross-compared in the gametocyte ATP-depletion assay, at 2 μM single concentration (Supplementary Data 1). This assay monitors ATP levels as surrogate of gametocyte viability.
‘Viability' of mature gametocytes was determined using the gametocyte ATP bioluminiscence assay. Briefly, stages IV–V gametocyte cultures were double-purified by differential sedimentation followed by magnetic isolation. Then, parasites (50 μl per well containing 12,500 gametocytes) were added to compound pre-dispensed 384-well plates (781091, Greiner Bio-One) and incubated at 37 °C for 48 h (3% O2, 5% CO2 and 92% N2). BacTiter-Glo kit (G8231, Promega) was used to determine the ATP levels of ‘live' parasites according to the manufacturer's instructions. After reagent addition (50 μl per well), luminescence of the plates was measured using a microplate reader (HTS counter Victor, Wallac).

[3] = system: HepG2 cells; test: HepG2 cytotoxicity assay; format: cell-based; details: mean
Procedure: After incubation, plates and CellTiter-Glo Reagent (G7571, Promega) were equilibrated at room temperature for 30 min before proceeding to develop the luminescent signal. Using a Multidrop combi dispenser, 25 μl per well of the signal developer were added to the plates and after 10 min at room temperature for stabilization, plates were read on the ViewLux system (Perkin Elmer).

[4] = system: P. falciparum asexual blood stages; details: read-out: Pf Asexual blood stages XC50, cited from earlier work
[5] = TCAMS data, ref 1 (Gamo et al., 2010)
[6] = P. falciparum female gametocytes
[7] = TCAMS asexual blood stage data, ref 1 (Gamo, F. J. et al., Nature 465, 305-310, 2010)

IC50 [1] [nM]	IC50 [1, 6] [nM]	SMILES	Gametocytes mean ATP inhibition at 2µM (%) [2] [%]	HepG2 cells mean TOX50 [3] [µM]	IC50 [4, 5] [nM]	Gametocytes mean ATP inhibition at 2µM [2] [%]	HepG2 cells mean TOX50 ([3]; HepG2 cells) [µM]	IC50 [4, 7] [nM]
860		COc1cc(NCCCNCc2cn(Cc3cc(Br)cc(Br)c3)c3ccccc23)nc2ccccc12 [TCMDC-140677]	11.13	3.94	190			
3890		CCN(CC)CC(O)CNc1c2ccc([N+](=O)[O-])cc2nc2cc(OC)c(OC)cc12.Cl (stereo not shown) [TCMDC-138079]	44.60		270			
90		CN(CCCNCc1ccc2ccccc2c1)CCCNCc1ccc2ccccc2c1.Cl [TCMDC-137908]	72.34	5.01	390			
	1670	Cc1cc(Nc2ncc(C#N)c(Nc3ccccc3C(N)=O)n2)ccc1N1CCN(C)CC1.Cl [TCMDC-134115]				20.18	0.40	9
1510		COc1ccc(Nc2nccc(-c3ccc4ccnc(NCCCCN)c4c3)n2)cc1 [TCMDC-136642]	21.11	14.29	750			
1910		Clc1ccc(Nc2nc3ccc(Cl)cc3nc2Nc2ccc(Cl)cc2)cc1 [TCMDC-137772]	27.62	7.86	130			
1840		CC(Cc1ccc(NS(=O)(=O)c2ccc(CC(C)NCCc3cccc(Cl)c3)cc2)cc1)NCCc1cccc(Cl)c1 (stereo not shown) [TCMDC-139797]	-2.49	4.37	770			
	4550	CCOc1ccc2nc3cc(NC(=O)c4ccco4)ccc3c(N)c2c1 [TCMDC-125004]				91.77	25.15	800
	960	C[C@H](Cc1ccc(OCCCCCOc2ccc(C[C@@H](C)NC[C@H](O)c3cccc(Cl)c3)cc2)cc1)NC[C@H](O)c1cccc(Cl)c1.Cl [TCMDC-131563]				21.40	2.11	190
30		c1cc(Nc2nc(-c3ccc(-c4csc(Nc5ccncc5)n4)cc3)cs2)ccn1 [TCMDC-139725]	93.92	2.26	120			
2070		CC(Cc1ccc(NC(=O)c2ccc(CNCCc3ccccc3)cc2)cc1)NCCc1cccc(Cl)c1.Cl (stereo not shown) [TCMDC-139867]	10.73	4.17	350			
	1020	CCc1c(CCNCCCCCCNCCc2ccc3c(c2C)OCO3)ccc2c1OCO2.Cl [TCMDC-132093]				10.41	3.89	610
1490		Cl.O=C(NCCCCN1CCC(c2ccc3c(c2O)CCCC3)CC1)c1ccc(NC(=O)c2ccc(Cl)cc2)cc1 [TCMDC-138645]	-0.21	3.80	240			
		CC(Cc1ccc(CNC(=O)NCc2ccc(CC(C)NCCc3cccc(Cl)c3)cc2)cc1)NCCc1cccc(Cl)c1 (stereo not shown) [TCMDC-139648]	12.15	3.94	690			
	32.3	c1ccc(-c2csc(Nc3nc4cc5c(cc4s3)OCO5)n2)nc1 [TCMDC-124550]				56.70		580
20		CC(=NNC(S)=NCc1ccco1)c1ccccn1 [TCMDC-137906]	77.01		250			
		Cl.c1ccc2c(Nc3ccc(OCCOCCOc4ccc(Nc5c6ccccc6nc6ccccc56)cc4)cc3)c3ccccc3nc2c1 [TCMDC-137355]	-18.54	5.59	280			
40		CC(=NNC(=S)NC(C)(C)C)c1ccccn1 [TCMDC-137783]	84.85		160			
	15.3	S=C(NN=Cc1ccccn1)NC1CC2C=CC1C2 (stereo not shown) [TCMDC-125752]				74.38		720
		Cc1c(Cl)cccc1S(=O)(=O)Nc1ccc(CCN2CCC(N)CC2)cc1.Cl [TCMDC-134083]				-1.32	13.86	1460
	14	CNC(=S)NN=C(C)c1ccccn1 [TCMDC-123475]				81.04		270
	50	NC(=Nc1nc(-c2ccccn2)cc2ccccc12)c1cccc(Cl)c1 [TCMDC-123745]				49.04		310
	350	Cc1cc(C(=O)Nc2nc(-c3ccccn3)nc3ccsc23)no1 [TCMDC-135243]				53.53		810
	27.3	Cc1ccc(Nc2nc(-c3ccccn3)cs2)nc1 [TCMDC-125854]				82.15		750
	3030	Oc1c(C(Nc2nc3ccccc3s2)c2ccccc2)ccc2cccnc12 (stereo not shown) [TCMDC-125565]				91.61		650

SMILES	IC50 [1] [nM]	IC50 [1, 6] [nM]	Gametocytes mean ATP inhibition at 2µM (%) [2] [%]	HepG2 cells mean TOX50 [3] [µM]	IC50 [4, 5] [nM]	Gametocytes mean ATP inhibition at 2µM [2] [%]	HepG2 cells mean TOX50 ([3]; HepG2 cells) [µM]	IC50 [4, 7] [nM]
CCCCOc1ccc(CNCCCCCCNCc2ccc(OCCCC)c3ccccc23)c2ccccc12.CS(=O)(=O)O [TCMDC-137281]	400		94.34	2.29	1130			
COc1ccc(CNC(=O)c2cnc3c(O)cccc3c2Nc2cccc(NC(=O)c3ccc(Cl)c(Cl)c3)c2)cc1.O=C(O)C(F)(F)F [TCMDC-139607]	1600		90.02		600			
CCn1c(-c2nonc2N)nc2c(-c3cccc(NC(=O)NC45CC6CC(CC(C6)C4)C5)c3)ncc(OCCCN)c21.O=C(O)C(F)(F)F [TCMDC-136246]	1360		-16.91	6.10				
COc1ccc(CNC(=O)c2cnc3c(O)cccc3c2Nc2cccc(NC(=O)c3ccc(-c4ccccc4)cc3)c2)cc1.O=C(O)C(F)(F)F [TCMDC-139611]	1820		88.95		940			
CC(C)(C)c1ccc(C(=O)Nc2cccc(Nc3c(C(=O)NCc4cccc(C(F)(F)F)c4)cnc4c(O)cccc34)c2)cc1.O=C(O)C(F)(F)F [TCMDC-139610]	3630		83.54		1090			
